Measured values as given in patent US20260232712A1, “Food for Improving Intestinal Environment” (AJINOMOTO CO., INC., priority 2023, published 2026).

Assays:
[1] = system: C. sporogenes; assay: Pure culture growth test of C. sporogenes with added amino acid (OD600); format: cell-based, Clostridium sporogenes; conditions: amino acid added at final concentration 4 mM; 1/5 diluted medium; vs control; FIG. 1-2
Experimental: Amino acids that promote the growth of an IPA-producing bacterium C. sporogenes were narrowed down using a genome-scale metabolic model (GEM) simulation, and then evaluated in a pure culture system. The GEM simulation was performed using COBRA toolbox of MATLAB (registered trademark), and amino acids that affected the growth of C. sporogenes when 20 types of amino acids were removed one by one were selected. Then, the influence of amino acids selected by GEM analysis on the growth of C. sporogenes was investigated in a pure culture system. As C. sporogenes, an in-house strain from Ajinomoto Co., Inc. was used, and as the culture medium, ⅕ diluted enhanced Clostridium medium (Difico, #62620609) was used. Each amino acid was added to the medium to a final concentration of 4 mM, and the growth of C. sporogenes was evaluated using OD600 as an indicator. The control contained no addition of amino acid (culture medium only).

[2] = system: C. sporogenes; assay: IPA production by concentrated C. sporogenes bacterial solution with Trp and/or Phe; format: cell-based, Clostridium sporogenes; conditions: 37° C., anaerobic, 24 hr; Trp 0.3 mM fixed, Phe 0.3-1.2 mM; FIG. 1-3
Experimental: To evaluate the influence of Trp and a combination of Trp and Phe on IPA production, pure culture experiments using C. sporogenes were performed. As C. sporogenes, in-house strain of Ajinomoto Co., Inc. was used. First, 800 μL of C. sporogenes glycerol stock was added to 40 mL of reinforced Clostridium medium and cultured under anaerobic conditions at 37° C. for 18 hr. After culturing, centrifugation was performed at 9,100×g for 5 min at 4° C., and the precipitate was collected under anaerobic conditions, washed twice with PBS, and finally suspended in 5 mL of PBS after anaerobic treatment to obtain a concentrated bacterial solution. The influence of the concentrated bacterial solution on IPA production was investigated. […] Furthermore, similar to Experimental Example 1, the influence of Phe/Trp molar ratios between 1 and 10 on IPA production in C. sporogenes was evaluated using GEM analysis.
The IPA concentration in the culture supernatant was analyzed using an LC-MS/MS mass spectrometry system (mass spectrometer: SCIEX API3200, pump: Shimadzu Corporation LC-20AD, autosampler: Shimadzu Corporation SIL-20AC, column oven: Shimadzu Corporation CTO-20AC, system controller: Shimadzu Corporation CBM-20A, degasser: Shimadzu Corporation DGU-20A, nitrogen generator: Airtech AT5NP-25CSL). […]

## N[C@@H](Cc1ccccc1)C(=O)O [Phe, L-phenylalanine]
[1]
  growth of C. sporogenes (OD600): promoted the growth of C. sporogenes
[2]
  IPA in the culture supernatant: no effect
